Measurements as given in US20100172889A1, “DEGRADABLE BIOMOLECULE COMPOSITIONS” (priority 2008, published 2010).

Tested on: cellulase C
Conditions: PHMB present in lyophilized cellulose film with cellulase C
Procedure: Two test materials (A and B) were prepared. Material A is a lyophilized cellulose film with cellulase C, and material B is a lyophilized cellulose film with cellulase C plus antiseptic Polyhexamethylene Biguanide (PHMB). Lyophilized cellulose samples A and B were incubated under conditions 1 and 2 for one month. Using media of tryptic soy agar, the samples were put in the solution to perform enzymatic degradation. On the 2nd, 8th, and 14th day, the degrading solution was taken out and plated on the agar media. The agar media plates were incubated for one month according to condition 3.

Polyhexamethylene Biguanide [PHMB]
reduction in cellulase enzyme activity: no observable reduction in cellulase enzyme activity
